Measurements as given in US20220409619A1, “INHIBITORS OF HUMAN IMMUNODEFICIENCY VIRUS REPLICATION” (VIIV HEALTHCARE UK (No. 5) LIMITED, priority 2019, published 2022).

Experiments:
[1] = Compound cytotoxicity, XTT-based colorimetric assay; type: cell-based; conditions: human; uninfected MT2 cells, day 4, XTT-based colorimetric assay
Method: Compound cytotoxicity and the corresponding CC50 values were determined using the same protocol as described in the antiviral assay except that uninfected cells were used. Cytotoxicity was assessed on day 4 in uninfected MT2 cells by using a XTT (2,3-bis[2-Methoxy-4-nitro-5-sulfophenyl]-2H-tetrazolium-5-carboxyanilide inner salt)-based colorimetric assay (Sigma-Aldrich, St Louis, Mo.).

[2] = system: recombinant NL4-3 virus (nef section replaced with Renilla luciferase gene) in MT-2 cells; assay: HIV cell culture assay (antiviral activity, luciferase readout); type: cell-based; conditions: Renilla, NL43
Method: HIV cell culture assay—MT-2 cells, 293T cells and the proviral DNA clone of NL4-3 virus were obtained from the NIH AIDS Research and Reference Reagent Program. MT-2 cells were propagated in RPMI 1640 media supplemented with 10% heat inactivated fetal bovine serum (FBS), 100 μg/ml penicillin G and up to 100 units/mL streptomycin. The 293T cells were propagated in DMEM media supplemented with 10% heat inactivated FBS, 100 μg/mL penicillin G and 100 μg/mL streptomycin. A recombinant NL4-3 proviral clone, in which a section of the nef gene was replaced with the Renilla luciferase gene, was used to make the reference virus used in these studies. The recombinant virus was prepared through transfection of the recombinant NL4-3 proviral clone into 293T cells using Transit-293 Transfection Reagent from Mirus Bio LLC (Madison, Wis.). Supernatent was harvested after 2-3 days and the amount of virus present was titered in MT-2 cells using luciferase enzyme activity as a marker by measuring luciferase enzyme activity. Luciferase was quantitated using the EnduRen Live Cell Substrate from Promega (Madison, Wis.). Antiviral activities of compounds toward the recombinant virus were quantified by measuring luciferase activity in MT-2 cells infected for 4-5 days with the recombinant virus in the presence of serial dilutions of the compound.
The 50% effective concentration (EC50) was calculated by using the exponential form of the median effect equation where (Fa)=1/[1+(ED50/drug conc.)^m] (Johnson V A, Byington R T. Infectivity Assay. In Techniques in HIV Research. ed. Aldovini A, Walker B D. 71-76. New York: Stockton Press. 1990). Curve fitting and analysis were performed with ActivityBase XE Runner software version 9.1.0.4 using model 203 (ID Business Solutions, LTD, Guildford, UK).

COC(C)(C)C#Cc1cc(=O)n(-c2ccc(Cl)c3c(NS(C)(=O)=O)nn(C)c23)c([C@H](Cc2cc(F)cc(F)c2)NC(=O)Cn2nc(C(F)F)c3c2C(F)(F)[C@@H]2C[C@H]32)n1 (atropisomer, axis not shown; (P)) [Example 9, N-((S)-1-((1P)-1-(4-chloro-1-methyl-3-(methylsulfonamido)-1H-indazol-7-yl)-4-(3-methoxy-3-methylbut-1-yn-1-yl)-6-oxo-1,6-dihydropyrimidin-2-yl)-2-(3,5-difluorophenyl)ethyl)-2-((3bS,4aR)-3-(difluoromethyl)-5,5-difluoro-3b,4,4a,5-tetrahydro-1H-cyclopropa[3,4]cyclopenta[1,2-c]pyrazol-1-yl)acetamide]
CC50 at 4 days [1]: > 100 nM
EC50 [2]: 0.04 nM

COc1cnc(-c2cc(=O)n(-c3ccc(Cl)c4c(NS(C)(=O)=O)nn(C)c34)c([C@H](Cc3cc(F)cc(F)c3)NC(=O)Cn3nc(C(F)F)c4c3C(F)(F)[C@@H]3C[C@H]43)n2)cn1 (atropisomer, axis not shown; (P)) [Example 13, N-((S)-1-((1P)-1-(4-chloro-1-methyl-3-(methylsulfonamido)-1H-indazol-7-yl)-4-(5-methoxypyrazin-2-yl)-6-oxo-1,6-dihydropyrimidin-2-yl)-2-(3,5-difluorophenyl)ethyl)-2-((3bS,4aR)-3-(difluoromethyl)-5,5-difluoro-3b,4,4a,5-tetrahydro-1H-cyclopropa[3,4]cyclopenta[1,2-c]pyrazol-1-yl)acetamide]
CC50 at 4 days [1]: > 100 nM
EC50 [2]: 0.2 nM

Cn1nc(NS(C)(=O)=O)c2c(Cl)ccc(-n3c([C@H](Cc4cc(F)cc(F)c4)NC(=O)Cn4nc(C(F)F)c5c4C(F)(F)[C@@H]4C[C@H]54)nc(-c4cnc(C(C)(F)F)s4)cc3=O)c21 (atropisomer, axis not shown; (P)) [Example 15, N-((S)-1-((1P)-1-(4-chloro-1-methyl-3-(methylsulfonamido)-1H-indazol-7-yl)-4-(2-(1,1-difluoroethyl)thiazol-5-yl)-6-oxo-1,6-dihydropyrimidin-2-yl)-2-(3,5-difluorophenyl)ethyl)-2-((3bS,4aR)-3-(difluoromethyl)-5,5-difluoro-3b,4,4a,5-tetrahydro-1H-cyclopropa[3,4]cyclopenta[1,2-c]pyrazol-1-yl)acetamide]
CC50 at 4 days [1]: > 100 nM
EC50 [2]: 0.59 nM

O=C(Cn1nc(C(F)F)c2c1C(F)(F)[C@@H]1C[C@H]21)N[C@@H](Cc1cc(F)cc(F)c1)c1nc(-c2nccc(C(F)(F)F)n2)cc(=O)n1-c1ccc(Cl)c2c(NS(=O)(=O)C3CC3)nn(CC(F)F)c12 (atropisomer, axis not shown; (aR)) [Example 46, N-((S)-1-((1′P)-1′-(4-chloro-3-(cyclopropanesulfonamido)-1-(2,2-difluoroethyl)-1H-indazol-7-yl)-6′-oxo-4-(trifluoromethyl)-1′,6′-dihydro-[2,4′-bipyrimidin]-2′-yl)-2-(3,5-difluorophenyl)ethyl)-2-((3bS,4aR)-3-(difluoromethyl)-5,5-difluoro-3b,4,4a,5-tetrahydro-1H-cyclopropa[3,4]cyclopenta[1,2-c]pyrazol-1-yl)acetamide]
CC50 at 4 days [1]: > 100 nM
EC50 [2]: 0.05 nM

CCc1cnc(-c2cc(=O)n(-c3ccc(Cl)c4c(NS(C)(=O)=O)nn(C)c34)c([C@H](Cc3cc(F)cc(F)c3)NC(=O)Cn3nc(C(F)F)c4c3C(F)(F)[C@@H]3C[C@H]43)n2)nc1 (atropisomer, axis not shown; (aR)) [Example 12, N-((S)-1-((1′P)-1′-(4-chloro-1-methyl-3-(methylsulfonamido)-1H-indazol-7-yl)-5-ethyl-6′-oxo-1′,6′-dihydro-[2,4′-bipyrimidin]-2′-yl)-2-(3,5-difluorophenyl)ethyl)-2-((3bS,4aR)-3-(difluoromethyl)-5,5-difluoro-3b,4,4a,5-tetrahydro-1H-cyclopropa[3,4]cyclopenta[1,2-c]pyrazol-1-yl)acetamide]
CC50 at 4 days [1]: > 100 nM
EC50 [2]: 0.019 nM

CCOc1ccc(-c2cc(=O)n(-c3ccc(Cl)c4c(NS(C)(=O)=O)nn(C)c34)c([C@H](Cc3cc(F)cc(F)c3)NC(=O)Cn3nc(C(F)F)c4c3C(F)(F)[C@@H]3C[C@H]43)n2)cn1 (atropisomer, axis not shown; (P)) [Example 22, N-((S)-1-((1P)-1-(4-chloro-1-methyl-3-(methylsulfonamido)-1H-indazol-7-yl)-4-(6-ethoxypyridin-3-yl)-6-oxo-1,6-dihydropyrimidin-2-yl)-2-(3,5-difluorophenyl)ethyl)-2-((3bS,4aR)-3-(difluoromethyl)-5,5-difluoro-3b,4,4a,5-tetrahydro-1H-cyclopropa[3,4]cyclopenta[1,2-c]pyrazol-1-yl)acetamide]
CC50 at 4 days [1]: > 100 nM
EC50 [2]: 0.46 nM

Cn1nc(C(F)(F)F)cc1-c1cc(=O)n(-c2ccc(Cl)c3c(NS(C)(=O)=O)nn(C)c23)c([C@H](Cc2cc(F)cc(F)c2)NC(=O)Cn2nc(C(F)F)c3c2C(F)(F)[C@@H]2C[C@H]32)n1 (atropisomer, axis not shown; (P)) [Example 19, N-((S)-1-((1P)-1-(4-chloro-1-methyl-3-(methylsulfonamido)-1H-indazol-7-yl)-4-(1-methyl-3-(trifluoromethyl)-1H-pyrazol-5-yl)-6-oxo-1,6-dihydropyrimidin-2-yl)-2-(3,5-difluorophenyl)ethyl)-2-((3bS,4aR)-3-(difluoromethyl)-5,5-difluoro-3b,4,4a,5-tetrahydro-1H-cyclopropa[3,4]cyclopenta[1,2-c]pyrazol-1-yl)acetamide]
CC50 at 4 days [1]: > 100 nM
EC50 [2]: 0.74 nM

Cn1nc(NS(C)(=O)=O)c2c(Cl)ccc(-n3c([C@H](Cc4cc(F)cc(F)c4)NC(=O)Cn4nc(C(F)F)c5c4C(F)(F)[C@@H]4C[C@H]54)nc(-c4csc(C(C)(C)O)n4)cc3=O)c21 (atropisomer, axis not shown; (P)) [Example 18, N-((S)-1-((1P)-1-(4-chloro-1-methyl-3-(methylsulfonamido)-1H-indazol-7-yl)-4-(2-(2-hydroxypropan-2-yl)thiazol-4-yl)-6-oxo-1,6-dihydropyrimidin-2-yl)-2-(3,5-difluorophenyl)ethyl)-2-((3bS,4aR)-3-(difluoromethyl)-5,5-difluoro-3b,4,4a,5-tetrahydro-1H-cyclopropa[3,4]cyclopenta[1,2-c]pyrazol-1-yl)acetamide]
CC50 at 4 days [1]: > 100 nM
EC50 [2]: 0.47 nM

Cn1nc(NS(C)(=O)=O)c2c(Cl)ccc(-n3c([C@H](Cc4cc(F)cc(F)c4)NC(=O)Cn4nc(C(F)F)c5c4C(F)(F)[C@@H]4C[C@H]54)nc(-c4cccc(F)n4)cc3=O)c21 (atropisomer, axis not shown; (P)) [Example 23, N-((S)-1-((1P)-1-(4-chloro-1-methyl-3-(methylsulfonamido)-1H-indazol-7-yl)-4-(6-fluoropyridin-2-yl)-6-oxo-1,6-dihydropyrimidin-2-yl)-2-(3,5-difluorophenyl)ethyl)-2-((3bS,4aR)-3-(difluoromethyl)-5,5-difluoro-3b,4,4a,5-tetrahydro-1H-cyclopropa[3,4]cyclopenta[1,2-c]pyrazol-1-yl)acetamide]
CC50 at 4 days [1]: > 100 nM
EC50 [2]: 0.42 nM

Cn1nc(NS(C)(=O)=O)c2c(Cl)ccc(-n3c([C@@H](Cc4cc(F)cc(F)c4)NC(=O)Cn4nc(C(F)F)c5c4C(F)(F)[C@@H]4C[C@H]54)nc(-c4ccccc4)cc3=O)c21 (atropisomer, axis not shown; (aR)) [Example 2, N-((R)-1-(1-(4-chloro-1-methyl-3-(methylsulfonamido)-1H-indazol-7-yl)-6-oxo-4-phenyl-1,6-dihydropyrimidin-2-yl)-2-(3,5-difluorophenyl)ethyl)-2-((3bS,4aR)-3-(difluoromethyl)-5,5-difluoro-3b,4,4a,5-tetrahydro-1H-cyclopropa[3,4]cyclopenta[1,2-c]pyrazol-1-yl)acetamide]
CC50 at 4 days [1]: > 500 nM
EC50 [2]: 190 nM

Cn1nc(NS(C)(=O)=O)c2c(Cl)ccc(-n3c([C@H](Cc4cc(F)cc(F)c4)NC(=O)Cn4nc(C(F)F)c5c4C(F)(F)[C@@H]4C[C@H]54)nc(-c4ccccc4)cc3=O)c21 (atropisomer, axis not shown; (aR)) [Example 1, N-((S)-1-(1-(4-chloro-1-methyl-3-(methylsulfonamido)-1H-indazol-7-yl)-6-oxo-4-phenyl-1,6-dihydropyrimidin-2-yl)-2-(3,5-difluorophenyl)ethyl)-2-((3bS,4aR)-3-(difluoromethyl)-5,5-difluoro-3b,4,4a,5-tetrahydro-1H-cyclopropa[3,4]cyclopenta[1,2-c]pyrazol-1-yl)acetamide]
CC50 at 4 days [1]: > 500 nM
EC50 [2]: 0.72 nM
